In US9133158B2, “Bicyclic dihydroisoquinoline-1-one derivatives” (Hoffmann-La Roche Inc., priority 2011, dated 2015):
pEC50: −log10 of the molar value.

Assays:
[1] = target: T1, human CYP11B2 (Homo sapiens, UniProt P19099); test: G-402 cellular enzyme assay, human CYP11B2 (aldosterone release, HTRF); type: cell-based; conditions: G-402 cells, 1 μM Deoxycorticosterone
T1 construct: expressed in transfected cells
T1 sequence (P19099 25-503): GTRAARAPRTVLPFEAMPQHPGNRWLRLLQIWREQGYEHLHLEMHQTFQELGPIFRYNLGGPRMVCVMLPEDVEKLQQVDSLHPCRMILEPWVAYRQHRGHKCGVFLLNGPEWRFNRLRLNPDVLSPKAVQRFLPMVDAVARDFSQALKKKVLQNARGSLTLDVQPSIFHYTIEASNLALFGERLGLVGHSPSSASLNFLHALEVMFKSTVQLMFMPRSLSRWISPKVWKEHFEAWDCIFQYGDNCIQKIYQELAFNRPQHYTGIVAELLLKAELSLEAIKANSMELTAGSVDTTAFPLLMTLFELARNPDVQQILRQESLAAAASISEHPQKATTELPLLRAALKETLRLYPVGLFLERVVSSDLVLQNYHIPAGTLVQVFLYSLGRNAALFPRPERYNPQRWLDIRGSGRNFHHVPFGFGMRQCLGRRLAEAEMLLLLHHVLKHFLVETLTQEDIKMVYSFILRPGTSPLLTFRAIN
From the text: (§1) Herein we identified the use of the G-402 cell line as a host cell to ectopically express (transiently or stably) enzymes of the CYP11 family. Specifically we developed stable G-402 cells expressing ectopically human CYP11B1, human CYP11B2, human CYP11A1, cynmolgus CYP11B1 or cynomolgus CYP11B2 enzyme activity. Importantly the identified cell line G-402 expresses co-factors (adrenodoxin and adrenodoxin reductase) important for the activity of the CYP11 family and no relevant enzyme activity of the CYP11 family (in comparison to H295R cells) was detected in these cells. Therefore the G-402 cell line is uniquely suited as a host cell for the ectopic expression of enzymes from the CYP11 family.
(§2) G-402 cells can be obtained from ATCC(CRL-1440) and were originally derived from a renal leiomyoblastoma.
(§3) The expression plasmids contain the ORF for either human/cyno CYP11B1 or CYP11B2 under the control of a suitable promoter (CMV-promoter) and a suitable resistance marker (neomycin). Using standard techniques the expression plasmid is transfected into G-402 cells and these cells are then selected for expressing the given resistance markers. Individual cell-clones are then selected and assessed for displaying the desired enzymatic activity using 11-Deoxycorticosterone (Cyp11B2) or 11-Deoxycortisol (Cyp11B1) as a substrate.
(§4) G-402 cells expressing CYP11 constructs were established as described above and maintained in McCoy's 5a Medium Modified, ATCC Catalog No. 30-2007 containing 10% FCS and 400 μg/ml G418 (Geneticin) at 37° C. under an atmosphere of 5% CO2/95% air.
(§5) Cellular enzyme assays were performed in DMEM/F12 medium containing 2.5% charcoal treated FCS and appropriate concentration of substrate (0.3-10 uM 11-Deoxycorticosterone, 11-Deoxycortisol or Corticosterone). For assaying enzymatic activity, cells were plated onto 96 well plates and incubated for 16 h. An aliquot of the supernatant is then transferred and analyzed for the concentration of the expected product (Aldosterone for CYP11B2; Cortisol for CYP11B1). The concentrations of these steroids can be determined using HTRF assays from CisBio analyzing either Aldosterone or Cortisol.
(§6) Inhibition of the release of produced steroids can be used as a measure of the respective enzyme inhibition by test compounds added during the cellular enzyme assay. The dose dependent inhibition of enzymatic activity by a compound is calculated by means of plotting added inhibitor concentrations (x-axes) vs. measured steroid/product level (y-axes). The inhibition is then calculated by fitting the following 4-parameter sigmoidal function (Morgan-Mercer-Flodin (MMF) model) to the raw data points using the least squares method:
(§7) [formula] wherein, A is the maximum y value, B is the EC50 factor determined using XLFit, C is the minimum y value and D is the slope value.
(§8) EC50 values for compounds claimed herein were tested with the G402-based assay system described. Cyp11B2 enzyme activity was tested in presence of 1 μM Deoxycorticosterone and variable amounts of inhibitors; Cyp11B1 enzyme activity was tested in presence of 1 μM Deoxycortisol and variable amounts of inhibitors.

[2] = target: T2, human CYP11B1 (Homo sapiens, UniProt P15538); test: G-402 cellular enzyme assay, human CYP11B1 (cortisol release, HTRF); type: cell-based; conditions: G-402 cells, 1 μM Deoxycortisol
T2 construct: expressed in transfected cells
T2 sequence (P15538 25-503): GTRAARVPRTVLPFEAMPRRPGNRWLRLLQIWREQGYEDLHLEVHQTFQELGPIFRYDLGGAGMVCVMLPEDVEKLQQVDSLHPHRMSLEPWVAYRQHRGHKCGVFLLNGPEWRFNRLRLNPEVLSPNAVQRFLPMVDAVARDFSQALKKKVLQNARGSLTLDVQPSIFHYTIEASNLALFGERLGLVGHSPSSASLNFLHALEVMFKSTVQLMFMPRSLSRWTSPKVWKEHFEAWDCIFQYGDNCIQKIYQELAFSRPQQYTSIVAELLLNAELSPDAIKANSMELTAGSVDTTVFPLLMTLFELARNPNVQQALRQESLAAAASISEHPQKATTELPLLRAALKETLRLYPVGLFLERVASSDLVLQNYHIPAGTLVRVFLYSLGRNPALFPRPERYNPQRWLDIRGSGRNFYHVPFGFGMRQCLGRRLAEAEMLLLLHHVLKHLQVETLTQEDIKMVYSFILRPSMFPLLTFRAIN
From the text: as §1, §2, §3, §4, §5, §6, §7, §8

Row | Compound | pEC50 [1] | pEC50 [2]
1 | CC(=O)NC1CCCc2c1cncc2N1Cc2cc(Cl)ccc2C1=O (single isomer, unassigned) [Example 323, N-[(R or S)-4-(5-Chloro-1-oxo-1,3-dihydro-isoindol-2-yl)-5,6,7,8-tetrahydro-isoquinolin-8-yl]-acetamide] | 7.35 | 5.63
2 | CS(=O)(=O)NC1CCCc2c1cncc2N1CCc2cc(Cl)ccc2C1=O (single isomer, unassigned) [Example 325, N-((R or S)-6-Chloro-1-oxo-3,4,5′,6′,7′,8′-hexahydro-1H-[2,4′]biisoquinolinyl-8′-yl)-methanesulfonamide] | 7.23 | 5.35
3 | CS(=O)(=O)NC1CCCc2c1cncc2N1Cc2cc(Cl)ccc2C1=O (single isomer, unassigned) [Example 326, N-[(S or R)-4-(5-Chloro-1-oxo-1,3-dihydro-isoindol-2-yl)-5,6,7,8-tetrahydro-isoquinolin-8-yl]-methanesulfonamide] | 5.73 | 5.18
4 | CS(=O)(=O)NC1CCCc2c1cncc2N1Cc2cc(Cl)ccc2C1=O (single isomer, unassigned) [Example 327, N-[(R or S)-4-(5-Chloro-1-oxo-1,3-dihydro-isoindol-2-yl)-5,6,7,8-tetrahydro-isoquinolin-8-yl]-methanesulfonamide] | 5.86 | 4.97
5 | CCC(=O)NC1CCCc2c1cncc2N1CCc2cc(Cl)ccc2C1=O (single isomer, unassigned) [Example 328, N-((R or S)-6-Chloro-1-oxo-3,4,5′,6′,7′,8′-hexahydro-1H-[2,4′]biisoquinolinyl-8′-yl)-propionamide] | 6.76 | 4.73
6 | CCC(=O)NC1CCCc2c1cncc2N1CCc2cc(Cl)ccc2C1=O (single isomer, unassigned) [Example 329, N-((S or R)-6-Chloro-1-oxo-3,4,5′,6′,7′,8′-hexahydro-1H-[2,4′]biisoquinolinyl-8′-yl)-propionamide] | 5.22 | 4.92
7 | CS(=O)(=O)NC1CCc2c1cncc2N1CCc2cc(Cl)ccc2C1=O (single isomer, unassigned) [Example 331, N-[(R or S)-4-(6-Chloro-1-oxo-3,4-dihydro-1H-isoquinolin-2-yl)-6,7-dihydro-5H-[2]pyrindin-7-yl]-methanesulfonamide] | 5.36 | 4.46
8 | CS(=O)(=O)NC1CCc2c1cncc2N1Cc2cc(Cl)ccc2C1=O (single isomer, unassigned) [Example 334, N-[(R or S)-4-(5-Chloro-1-oxo-1,3-dihydro-isoindol-2-yl)-6,7-dihydro-5H-[2]pyrindin-7-yl]-methanesulfonamide] | 6.42 | 4.46
9 | CCS(=O)(=O)NC1CCc2c1cncc2N1Cc2cc(Cl)ccc2C1=O (single isomer, unassigned) [Example 336, Ethanesulfonic acid [(R or S)-4-(5-chloro-1-oxo-1,3-dihydro-isoindol-2-yl)-6,7-dihydro-5H-[2]pyrindin-7-yl]-amide] | 6.02 | 4.52
10 | CCC(=O)NC1CCc2c1cncc2N1Cc2cc(Cl)ccc2C1=O (single isomer, unassigned) [Example 339, N-[(R or S)-4-(5-Chloro-1-oxo-1,3-dihydro-isoindol-2-yl)-6,7-dihydro-5H-[2]pyrindin-7-yl]-propionamide] | 7.26 | 5.10

The remaining lines, values ahead:

Row | pEC50 [1] | pEC50 [2] | Compound
11 | 7.02 | 5.28 | CC(=O)NC1CCc2c1cncc2N1CCc2cc(Cl)ccc2C1=O (single isomer, unassigned) [Example 333, N-[(S or R)-4-(6-Chloro-1-oxo-3,4-dihydro-1H-isoquinolin-2-yl)-6,7-dihydro-5H-[2]pyrindin-7-yl]-acetamide]
12 | 7.82 | 7.02 | CC[C@@H]1c2cc(Cl)ccc2C(=O)N1c1cncc2c1CC[C@@H]2NC(C)=O (single isomer, unassigned) [Example 342, (+)-N—[(S or R)-4-((R or S)-5-Chloro-3-ethyl-1-oxo-1,3-dihydro-isoindol-2-yl)-6,7-dihydro-5H-[2]pyrindin-7-yl]-acetamide]
13 | 6.87 | 5.33 | CC[C@H]1c2cc(Cl)ccc2C(=O)N1c1cncc2c1CC[C@H]2NC(C)=O (single isomer, unassigned) [Example 343]
14 | 7.51 | 5.82 | CC[C@@H]1c2cc(Cl)ccc2C(=O)N1c1cncc2c1CC[C@H]2NC(C)=O (single isomer, unassigned) [Example 344, (+)-N—[(R or S)-4-((R or S)-5-Chloro-3-ethyl-1-oxo-1,3-dihydro-isoindol-2-yl)-6,7-dihydro-5H-[2]pyrindin-7-yl]-acetamide]
15 | 7.31 | 5.70 | CC[C@H]1c2cc(Cl)ccc2C(=O)N1c1cncc2c1CC[C@@H]2NC(C)=O (single isomer, unassigned) [Example 345, (−)-N—[(S or R)-4-((S or R)-5-Chloro-3-ethyl-1-oxo-1,3-dihydro-isoindol-2-yl)-6,7-dihydro-5H-[2]pyrindin-7-yl]-acetamide]
16 | 6.79 | 4.64 | CC[C@@H]1c2cc(Cl)ccc2C(=O)N1c1cncc2c1CCC[C@H]2NS(C)(=O)=O (single isomer, unassigned) [Example 347, N-[(R or S)-4-((R or S)-5-Chloro-3-ethyl-1-oxo-1,3-dihydro-isoindol-2-yl)-5,6,7,8-tetrahydro-isoquinolin-8-yl]-methanesulfonamide]
17 | 5.55 | 4.43 | CC[C@H]1c2cc(Cl)ccc2C(=O)N1c1cncc2c1CCC[C@@H]2NS(C)(=O)=O (single isomer, unassigned) [Example 348, N-[(S or R)-4-((S or R)-5-Chloro-3-ethyl-1-oxo-1,3-dihydro-isoindol-2-yl)-5,6,7,8-tetrahydro-isoquinolin-8-yl]-methanesulfonamide]
18 | 6.01 | 4.82 | CC[C@@H]1c2cc(Cl)ccc2C(=O)N1c1cncc2c1CCC[C@@H]2NS(C)(=O)=O (single isomer, unassigned) [Example 349, N-[(S or R)-4-((R or S)-5-Chloro-3-ethyl-1-oxo-1,3-dihydro-isoindol-2-yl)-5,6,7,8-tetrahydro-isoquinolin-8-yl]-methanesulfonamide]
19 | 7.23 | 5.43 | CC[C@H]1c2cc(Cl)ccc2C(=O)N1c1cncc2c1CCC[C@H]2NS(C)(=O)=O (single isomer, unassigned) [Example 350, N-[(R or S)-4-((S or R)-5-Chloro-3-ethyl-1-oxo-1,3-dihydro-isoindol-2-yl)-5,6,7,8-tetrahydro-isoquinolin-8-yl]-methanesulfonamide]
